This is an account of results in patent publication US20060167298A1, “Sulfated diglyceride derivatives, salts thereof, and processes for their preparation” (priority 2005, published 2006).

Data set [1] can be described thus: Surface tension of aqueous solution at 25° C. The data set is classed as physicochemical.
Data set [2] in a line: Foam test: solution shaken in a graduated cylinder. It counts as physicochemical. On the procedure: Dioctanoyl glyceride (6.88 grams; 0.02 mole), sulfamic acid (2.14 gram; 0.022 mole) and ammonium sulfamate (0.34 gram; 0.00298 mole) were heated with stirring at 120-125° C. for 3 hours. The reaction mixture was a somewhat viscous brown liquid. The reaction mixture was treated with water to make a 10% solution by weight, and centrifuged to recover unreacted diglyceride.

Where [3] appears, read: 0.1% by weight aqueous solution of the reaction mixture.
[4] abbreviates: 20 ml of the 0.1% solution shaken in a 100 ml graduated cylinder for 20 full cycles.
[5] abbreviates: 0.12% aqueous solution of the product in distilled water.

Regarding `CCCCCCCC(=O)OCC(COS(=O)(=O)O)OC(=O)CCCCCCC.N` (centres unmarked) [Example 1 (ammonium salt), Sulfated Dioctanoyl Glyceride], in data set [1] (setting [3]), the “surface tension at 25° C.” value was determined as 25.4 mN/m. Moreover, in data set [2] (setting [4]), the foam persistence result is recorded as “one hour or more” and the foam produced was determined as 45 mL.
With `CCCCCCCC(=O)OCC(COS(=O)(=O)O)OC(=O)CCCCCCC.N` (centres unmarked) [Example 1 (sodium salt), Sulfated Dioctanoyl Glyceride], the “surface tension at 25° C.” value in data set [1] (setting [3]) stood at 26.3 mN/m.
Consider `CCCCCC(=O)OCC(COS(=O)(=O)O)OC(=O)CCCCC.N` (centres unmarked) [Example 2, Ammonium Salt of Sulfated Dihexanoyl Glyceride], for which, in data set [1] (0.4% by weight aqueous solution of the reaction mixture), the “surface tension at 25° C.” value came to 31.9 mN/m.
For `CCCCCC(=O)OCC(COS(=O)(=O)O)OC(=O)CCCCC.N` (centres unmarked) [Example 6 I, Ammonium Salt of Sulfated Dihexanoyl Glyceride], the “surface tension at 25° C.” value in data set [1] (0.42% aqueous solution of the product) is on record as 35.6 mN/m.
Consider “Mixed Morpholinium, Ammonium Salt of Sulfated Dihexanoyl Glyceride [Example 3]”, for which the “surface tension at 25° C.” value in data set [1] (0.44% aqueous solution of the reaction mixture) amounted to 36.5 mN/m.
Regarding “Mixed Sodium and Ammonium Salt of Sulfated Dihexanoyl Glyceride [Example 6 II]”, the “surface tension at 25° C.” value in data set [1] (0.42% (by weight) solution of the reaction mixture, diluted from 10% solution (pH about 9) after centrifugation) is given as 35.0 mN/m.
As to “Sodium Salt of Sulfated Dioctanoyl Glyceride [Example 5]”, in data set [1] (setting [5]), the “surface tension at 25° C.” value came out at 26.8 mN/m. In data set [2] (setting [5]), the “foaming (observed)” value was “foam very well”.
In the case of “Sodium Salt of Sulfonated Didecanoyl Glyceride [Example 4]”, the “surface tension at 25° C.” value in data set [1] (0.1 g sample of reaction mixture dissolved in distilled water, neutralized to pH about 8 with NaOH) is 25.9 mN/m.

For orientation: surface tension means the force per length acting along the surface.
